# Laboratory results taken from PubChem BioAssay AID1963851 (Molecular Pharmacology Branch, DTP, NCI, 2024).
# System: 188146-221-R-J1-PDC complex spheroid viability
# Test: Anticancer human tumor 188146-221-R-J1-PDC patient-derived colon adenocarcinoma cell line growth inhibition [POLQ]
# Conditions: for IC50: curve of first compound; for viability, T/C: stronger effect = lower value
# In short: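 Patient-derived tumour cells were co-cultured with HUVEC and mesenchymal stem cells as multicellular spheroids at 37 °C. They were treated with POLQ inhibitors (novobiocin, ART-558, RP6685) alone or combined with other agents. Top concentrations were at or near clinical Cmax (otherwise 10 microM; SN-38 at 1 microM), decreasing in half-log steps.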
# [1] = second compound 0.0316 µM, first compound 0.0316 µM
# [2] = second compound 0.0316 µM, first compound 0.1 µM
# [3] = second compound 0.0316 µM, first compound 0.316 µM
# [4] = second compound 0.0316 µM, first compound 1 µM
# [5] = second compound 0.0316 µM, first compound 3.16 µM
# [6] = second compound 0.0316 µM, first compound 10 µM
# [7] = second compound 0.1 µM, first compound 0.0316 µM
# [8] = second compound 0.1 µM, first compound 0.1 µM
# [9] = second compound 0.1 µM, first compound 0.316 µM
# [10] = second compound 0.1 µM, first compound 1 µM
# [11] = second compound 0.1 µM, first compound 3.16 µM
# [12] = second compound 0.1 µM, first compound 10 µM
# [13] = second compound 0.316 µM, first compound 0.0316 µM
# [14] = second compound 0.316 µM, first compound 0.1 µM
# [15] = second compound 0.316 µM, first compound 0.316 µM
# [16] = second compound 0.316 µM, first compound 1 µM
# [17] = second compound 0.316 µM, first compound 3.16 µM
# [18] = second compound 0.316 µM, first compound 10 µM
# [19] = second compound 1 µM, first compound 0.0316 µM
# [20] = second compound 1 µM, first compound 0.1 µM
# [21] = second compound 1 µM, first compound 0.316 µM
# [22] = second compound 1 µM, first compound 1 µM
# [23] = second compound 1 µM, first compound 3.16 µM
# [24] = second compound 1 µM, first compound 10 µM
# [25] = second compound 3.16 µM, first compound 0.0316 µM
# [26] = second compound 3.16 µM, first compound 0.1 µM
# [27] = second compound 3.16 µM, first compound 0.316 µM
# [28] = second compound 3.16 µM, first compound 1 µM
# [29] = second compound 3.16 µM, first compound 3.16 µM
# [30] = second compound 3.16 µM, first compound 10 µM
# [31] = second compound 10 µM, first compound 0.0316 µM
# [32] = second compound 10 µM, first compound 0.1 µM
# [33] = second compound 10 µM, first compound 0.316 µM
# [34] = second compound 10 µM, first compound 1 µM
# [35] = second compound 10 µM, first compound 3.16 µM
# [36] = second compound 10 µM, first compound 10 µM
# 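Further: spheroids exposed to compounds for seven days.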
# 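Wherever viability, T/C is given: 100% = DMSO vehicle control viability.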
smiles,measurement,setting,value
CC(C)n1c(=O)n(C)c2cnc3cc(F)c(-c4ccc(OCCCN5CCCCC5)nc4)cc3c21 + Cc1cccc(N(C)C(=O)C2C(O)CCN2c2nc(C)cc(C(F)(F)F)c2C#N)c1,IC50,second compound 0.0316 µM,> 10 µM
same,IC50,second compound 0.1 µM,> 10 µM
same,IC50,second compound 0.316 µM,> 10 µM
same,IC50,second compound 1 µM,> 10 µM
same,IC50,second compound 3.16 µM,> 10 µM
same,IC50,second compound 10 µM,> 10 µM
same,"viability, T/C",[1],110%
same,"viability, T/C",[2],97.9%
same,"viability, T/C",[3],100%
same,"viability, T/C",[4],106%
same,"viability, T/C",[5],102%
same,"viability, T/C",[6],83.7%
same,"viability, T/C",[7],109%
same,"viability, T/C",[8],98.5%
same,"viability, T/C",[9],107%
same,"viability, T/C",[10],113%
same,"viability, T/C",[11],90.5%
same,"viability, T/C",[12],89.1%
same,"viability, T/C",[13],108%
same,"viability, T/C",[14],115%
same,"viability, T/C",[15],98.7%
same,"viability, T/C",[16],100%
same,"viability, T/C",[17],85.4%
same,"viability, T/C",[18],85.9%
same,"viability, T/C",[19],111%
same,"viability, T/C",[20],107%
same,"viability, T/C",[21],104%
same,"viability, T/C",[22],93%
same,"viability, T/C",[23],88.6%
same,"viability, T/C",[24],86.5%
same,"viability, T/C",[25],103%
same,"viability, T/C",[26],104%
same,"viability, T/C",[27],100%
same,"viability, T/C",[28],82%
same,"viability, T/C",[29],99.6%
same,"viability, T/C",[30],81.8%
same,"viability, T/C",[31],91.6%
same,"viability, T/C",[32],85.8%
same,"viability, T/C",[33],101%
same,"viability, T/C",[34],97.4%
same,"viability, T/C",[35],93.7%
same,"viability, T/C",[36],95%
CC1COCCN1c1cc(-c2ccnn2C)c2ccnc(-c3ccn[nH]3)c2n1 (stereo unspecified) + Cc1cccc(N(C)C(=O)C2C(O)CCN2c2nc(C)cc(C(F)(F)F)c2C#N)c1,IC50,second compound 0.0316 µM,0.203 µM
same,IC50,second compound 0.1 µM,0.228 µM
same,IC50,second compound 0.316 µM,0.248 µM
same,IC50,second compound 1 µM,0.336 µM
same,IC50,second compound 3.16 µM,0.232 µM
same,IC50,second compound 10 µM,0.165 µM
same,"viability, T/C",[1],86.4%
same,"viability, T/C",[2],63.6%
same,"viability, T/C",[3],43.3%
same,"viability, T/C",[4],21.8%
same,"viability, T/C",[5],21.6%
same,"viability, T/C",[6],17.8%
same,"viability, T/C",[7],87.6%
same,"viability, T/C",[8],72.7%
same,"viability, T/C",[9],39.3%
same,"viability, T/C",[10],26.5%
same,"viability, T/C",[11],17%
same,"viability, T/C",[12],15.7%
same,"viability, T/C",[13],92.9%
same,"viability, T/C",[14],79.8%
same,"viability, T/C",[15],40%
same,"viability, T/C",[16],26.5%
same,"viability, T/C",[17],18.8%
same,"viability, T/C",[18],13.8%
same,"viability, T/C",[19],75.8%
same,"viability, T/C",[20],73.9%
same,"viability, T/C",[21],50.3%
same,"viability, T/C",[22],26.4%
same,"viability, T/C",[23],17.5%
same,"viability, T/C",[24],15.8%
same,"viability, T/C",[25],74.9%
same,"viability, T/C",[26],67.6%
same,"viability, T/C",[27],44%
same,"viability, T/C",[28],20%
same,"viability, T/C",[29],23.3%
same,"viability, T/C",[30],16.6%
same,"viability, T/C",[31],67.9%
same,"viability, T/C",[32],51.5%
same,"viability, T/C",[33],47.8%
same,"viability, T/C",[34],25.1%
same,"viability, T/C",[35],21.3%
same,"viability, T/C",[36],20.2%
CC1COCCN1c1cc(C2(S(C)(=N)=O)CC2)nc(-c2ccnc3[nH]ccc23)n1 (stereo unspecified) + Cc1cccc(N(C)C(=O)C2C(O)CCN2c2nc(C)cc(C(F)(F)F)c2C#N)c1,IC50,second compound 0.0316 µM,4.9 µM
same,IC50,second compound 0.1 µM,4.65 µM
same,IC50,second compound 0.316 µM,5.33 µM
same,IC50,second compound 1 µM,4.36 µM
same,IC50,second compound 3.16 µM,4.9 µM
same,IC50,second compound 10 µM,3.21 µM
same,"viability, T/C",[1],108%
same,"viability, T/C",[2],92.9%
same,"viability, T/C",[3],97.6%
same,"viability, T/C",[4],95.7%
same,"viability, T/C",[5],65.2%
same,"viability, T/C",[6],25.1%
same,"viability, T/C",[7],114%
same,"viability, T/C",[8],98.3%
same,"viability, T/C",[9],93.9%
same,"viability, T/C",[10],89.1%
same,"viability, T/C",[11],58.7%
same,"viability, T/C",[12],27.7%
same,"viability, T/C",[13],98.4%
same,"viability, T/C",[14],96.9%
same,"viability, T/C",[15],97.9%
same,"viability, T/C",[16],90.2%
same,"viability, T/C",[17],68.5%
same,"viability, T/C",[18],27.8%
same,"viability, T/C",[19],101%
same,"viability, T/C",[20],91%
same,"viability, T/C",[21],95.7%
same,"viability, T/C",[22],91.4%
same,"viability, T/C",[23],58.2%
same,"viability, T/C",[24],28.9%
same,"viability, T/C",[25],88.5%
same,"viability, T/C",[26],103%
same,"viability, T/C",[27],81.4%
same,"viability, T/C",[28],83.8%
same,"viability, T/C",[29],63.8%
same,"viability, T/C",[30],27.2%
same,"viability, T/C",[31],90%
same,"viability, T/C",[32],78.5%
same,"viability, T/C",[33],88.8%
same,"viability, T/C",[34],62%
same,"viability, T/C",[35],53.2%
same,"viability, T/C",[36],19.4%
